Source: US20080255186A1, “Pyrazolo[3,4-B]Pyridine Compound, and Its Use as a Pde4 Inhibitor” (priority 2005, published 2008)
Like-named read-outs stand apart in the source and are kept apart here.

Key:
PDE5 (human recombinant) = PDE5 (human recombinant) (Homo sapiens, UniProt O76074); experiment: PDE5 inhibition (FP or SPA general type of assay); format: biochemical; settings: in the particular assays used
Description: Human recombinant PDE5 is disclosed in K. Loughney et al., “Isolation and characterisation of cDNAs encoding PDE5A, a human cGMP-binding, cGMP-specific 3′,5′-cyclic nucleotide phosphodiesterase”, Gene, 1998, 216, 139-147.
The ability of compounds to inhibit catalytic activity at PDE4B or 4D (human recombinant), PDE3 (from bovine aorta), PDE5 (human recombinant) or PDE6 (from bovine retina) can optionally be determined by Scintillation Proximity Assay (SPA) in a 96-well format.
Test compounds (as a solution in DMSO, suitably about 2 microlitre (ul) volume of DMSO solution) are preincubated at ambient temperature (room temperature, e.g. 19-23° C.) in Wallac Isoplates (code 1450-514) with PDE enzyme in 50 mM Tris-HCl buffer pH 7.5, 8.3 mM MgCl2, 1.7 mM EGTA, 0.05% (w/v) bovine serum albumin for 10-30 minutes (usually 30 minutes). […] Bound radioactive product is measured using a WALLAC TRILUX 1450 Microbeta scintillation counter. […] Curves are analysed using ActivityBase and XLfit (ID Business Solutions Limited, 2 Ocean Court, Surrey Research Park, Guildford, Surrey GU2 7QB, United Kingdom). Results are expressed as pIC50 values.
The compound of the invention (e.g. as prepared in Example 1) has also been tested for PDE3, PDE5 and PDE6 inhibition, e.g. using (independently for each PDE type) either a Fluorescence Polarisation (FP) general type of assay or using an SPA general type of assay.

[1] = tested on: TNF-α (TNF-alpha) production in Human Whole Blood; experiment: Inhibition of TNF-alpha production in Human Whole Blood (IGEN assay); format: cell-based
Procedure: This is an optional supplementary test, e.g. for potentially orally-administrable PDE4 inhibitors. Also, as the assay may measure the effect of PDE4 inhibitors after loss by protein binding, it might possibly also be relevant to externally-topically-administrable PDE4 inhibitors as protein-binding-loss of compound is possible during transport through the skin.
Test compounds are prepared as a ca. 10 mM stock solution in DMSO and a dilution series prepared in DMSO with 8 successive 3-fold dilutions, either directly from the 10 mM stock solution or from a more dilute solution in DMSO. The compound is added to assay plates using a Biomek Fx liquid handling robot.
Heparinised blood drawn from normal volunteers is dispensed (ca. 100 μl=ca. 100 ul) into microtitre plate wells containing ca. 0.5 or ca. 1.0 μl (ul, microlitres) of an appropriately diluted test compound solution. […] Plasma TNFα content is determined by electrochemiluminescence assay using the MSD technology (see below), the IGEN technology (see below) or by enzyme linked immunosorbant assay (ELISA) (see below).
Ca. […] 50 μl (ul) of streptavidin/biotinylated anti-TNF-α antibody mix, ca. 25 μl ruthenium tagged anti-TNF-α monoclonal and ca. 100 μl PBS containing 0.1% bovine serum albumin are added to each well and the plates are sealed and shaken for ca. 2 hours before being read on an IGEN instrument.

SMILES: CCc1nc2c(cnn2CC)c(NC2CCOCC2)c1CNC(=O)c1cc(C)no1 [Example 1, N-{[1,6-diethyl-4-(tetrahydro-2H-pyran-4-ylamino)-1H-pyrazolo[3,4-b]pyridin-5-yl]methyl}-3-methyl-5-isoxazolecarboxamide]
- PDE4B pIC50 compared with PDE5 pIC50 (selectivity) (PDE5 (human recombinant)): inhibits PDE4B more strongly than it inhibits PDE3, PDE5 and PDE6
- IC50 ([1]; n = about 4, LPS-stimulated, read-out: Whole Blood, Mean pIC50 (IGEN assay) (converted)): ~2 nM
- IC50 ([1]; range of individual measurements, read-out: Whole Blood individual pIC50 test values, range (IGEN assay) (converted)): 1.26 to 2.63 nM
